Where “and” joins values, the source holds several entries; their conditions need not be identical. Equal entries are not always repeated.
How the values were obtained:
[1] = molecular target: T1, RecQ helicase (Escherichia coli, UniProt P15043); experiment: Cell-free fluorescence molecular beacon helicase assay; type: biochemical, E. coli; design: Average rate of reaction / Rate (Triplicate): unit: RFU/min; conditions: for Average rate of reaction: mean of triplicate; for Rate (Triplicate): rate of reaction=(F0-F35)/35; for Fluorescence at 35 minutes, Run 2 / Fluorescence at time 0, Run 2: duplicate, listed as M; for Change in helicase activity compared to the DMSO control: any of the tested concentrations (0.06-200 μg/mL)
T1 construct: a full-length E. coli helicase, RecQ, was used
T1 sequence (P15043 whole entry): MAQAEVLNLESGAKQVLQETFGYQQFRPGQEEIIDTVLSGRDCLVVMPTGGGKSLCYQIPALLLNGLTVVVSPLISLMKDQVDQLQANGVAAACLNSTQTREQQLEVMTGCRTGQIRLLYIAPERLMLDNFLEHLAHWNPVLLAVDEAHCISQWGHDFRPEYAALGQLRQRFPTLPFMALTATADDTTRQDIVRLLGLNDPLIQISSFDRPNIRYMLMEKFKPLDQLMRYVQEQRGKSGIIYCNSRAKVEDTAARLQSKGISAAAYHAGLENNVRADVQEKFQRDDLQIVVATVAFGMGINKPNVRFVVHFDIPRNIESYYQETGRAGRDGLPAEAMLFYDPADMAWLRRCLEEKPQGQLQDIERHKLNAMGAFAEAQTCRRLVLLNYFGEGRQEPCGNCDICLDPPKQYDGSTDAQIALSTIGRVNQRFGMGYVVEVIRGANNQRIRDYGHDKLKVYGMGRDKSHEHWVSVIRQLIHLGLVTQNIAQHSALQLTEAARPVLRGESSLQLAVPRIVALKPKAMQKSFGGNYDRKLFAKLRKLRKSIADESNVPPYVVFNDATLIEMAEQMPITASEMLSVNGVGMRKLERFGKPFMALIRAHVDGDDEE

[2] = test system: human PBMC; experiment: LPS stimulated cytokine secretion in human PBMC pretreated with compounds (Phase 2); type: cell-based; design: TNF-α concentration in supernatant / IL-1β concentration in supernatant / IL-6 concentration in supernatant / IL-2 concentration in supernatant / IFN-g concentration in supernatant: unit of the concentration uncertain; conditions: for IL-1β Mean Fold-Change (Relative to LPS alone) / IL-6 Mean Fold-Change (Relative to LPS alone) / TNF-α Mean Fold-Change (Relative to LPS alone): 1 ng/mL LPS stimulation for 8 hours, means from 3 donors; for IL-2 concentration in supernatant / TNF-α concentration in supernatant / IL-1β concentration in supernatant / IFN-g concentration in supernatant / IL-6 concentration in supernatant: 8-hour 1 ng/mL LPS stimulation; for IL-2 concentration in supernatant: LLOQ = 1.698 pg/mL; for TNF-α concentration in supernatant: LLOQ = 2.018 pg/mL; for IL-1β concentration in supernatant: LLOQ = 2.299 pg/mL; for IFN-g concentration in supernatant: LLOQ = 2.792 pg/mL; for IL-6 concentration in supernatant: LLOQ = 0.831; for Effect on LPS stimulated cytokine secretion: any conditions tested
Text: Results are represented as fold-change relative to LPS treatment alone for each cytokine calculated by means from 3 separate donors.
RPMI medium alone, RPMI supplemented with 0.2% DMSO (to mimic treatment conditions) or LPS stimulation alone were used as controls.
Except for the two negative control conditions, all 3 donors responded to all experimental conditions tested with the secretion of TNF-α, IL-1β, and IL-6 albeit with a high degree of variability.

[3] = TA 0.2 μg/mL (plate column 5, wells A-C)
[4] = TA 2 μg/mL (plate column 7, wells A-C)
[5] = TA 6 μg/mL (plate column 8, wells A-C)
[6] = TA 200 μg/mL (plate column 11, wells A-C)
[7] = TA 200 + Buffer (plate column 12, wells A-C)

Compound: O=c1c(O)c(-c2cc(O)c(O)c(O)c2)oc2cc(O)cc(O)c12 [Myricetin]
- Average rate of reaction ([1]; 0.06 μg/mL): 119.381
- Rate (Triplicate) ([1]; 0.06 μg/mL): 156.0857 and 120.9143 and 81.14
- Fluorescence at 35 minutes, Run 2 ([1]; 0.2 μg/mL): 3820 RFU and 2972 RFU
- Fluorescence at time 0, Run 2 ([1]; 0.2 μg/mL): 5788 RFU and 4210 RFU
- Average rate of reaction ([1]; 0.2 μg/mL): 54.7
- Fluorescence at 35 minutes, Run 2 ([1]; 0.6 μg/mL): 4426 RFU and 3662 RFU
- Fluorescence at time 0, Run 2 ([1]; 0.6 μg/mL): 9244 RFU and 9661 RFU
- Average rate of reaction ([1]; 0.6 μg/mL): 39.68
- Fluorescence at 35 minutes, Run 2 ([1]; 2 μg/mL): 4289 RFU and 4448 RFU
- Fluorescence at time 0, Run 2 ([1]; 2 μg/mL): 8530 RFU and 9826 RFU
- Average rate of reaction ([1]; 2.0 μg/mL): 98.63
- Fluorescence at 35 minutes, Run 2 ([1]; 6 μg/mL): 3604 RFU and 4445 RFU
- Average rate of reaction ([1]; 6.0 μg/mL): 107.0439
- Fluorescence at 35 minutes, Run 2 ([1]; 20 μg/mL): 5025 RFU and 5336 RFU
- Fluorescence at time 0, Run 2 ([1]; 20 μg/mL): 5022 RFU and 5466 RFU
- Average rate of reaction ([1]; 20.0 μg/mL): 42.49
- Fluorescence at 35 minutes, Run 2 ([1]; 60 μg/mL): 4100 RFU and 3834 RFU
- Average rate of reaction ([1]; 60.0 μg/mL): 85
- Fluorescence at 35 minutes, Run 2 ([1]; 200 μg/mL): 2562 RFU and 2378 RFU
- Fluorescence at time 0, Run 2 ([1]; 200 μg/mL): 4555 RFU and 3893 RFU
- Average rate of reaction ([1]; 200.0 μg/mL): 69.46
- Rate (Triplicate) ([1]; 200.0 μg/mL): 81.98 and 52.34 and 74.0595
- Fluorescence at 0:00:00, Run 1 ([1]; TA 0.06 μg/mL (plate column 4, wells A-C)): 14946 RFU and 8957 RFU and 8828 RFU
- Fluorescence at 0:00:00, Run 1 [1, 3]: 10047 RFU and 9670 RFU and 6773 RFU
- Fluorescence at 0:35:00, Run 1 [1, 3]: 7144 RFU and 8199 RFU and 5403 RFU
- Fluorescence at 0:35:00, Run 1 ([1]; TA 0.6 μg/mL (plate column 6, wells A-C)): 7961 RFU and 4234 RFU and 5238 RFU
- Fluorescence at 0:00:00, Run 1 [1, 4]: 12406 RFU and 10235 RFU and 7932 RFU
- Fluorescence at 0:35:00, Run 1 [1, 4]: 8386 RFU and 5162 RFU and 6669 RFU
- Fluorescence at 0:00:00, Run 1 [1, 5]: 13174 RFU and 13286 RFU and 6908 RFU
- Fluorescence at 0:35:00, Run 1 [1, 5]: 9109 RFU and 7022 RFU and 6649 RFU
- Fluorescence at 0:35:00, Run 1 ([1]; TA 20 μg/mL (plate column 9, wells A-C)): 7412 RFU and 10338 RFU and 6947 RFU
- Fluorescence at 0:35:00, Run 1 ([1]; TA 60 μg/mL (plate column 10, wells A-C)): 8883 RFU and 7317 RFU and 6795 RFU
- Fluorescence at 0:00:00, Run 1 [1, 6]: 6608 RFU and 4850 RFU and 6196 RFU
- Fluorescence at 0:35:00, Run 1 [1, 6]: 5004 RFU and 3826 RFU and 4747 RFU
- Fluorescence at 0:00:00, Run 1 [1, 7]: 5165 RFU and 8965 RFU and 8207 RFU
- Fluorescence at 0:35:00, Run 1 [1, 7]: 3022 RFU and 4495 RFU and 5122 RFU
- Change in helicase activity compared to the DMSO control [1]: no observed consistent change
- Change in helicase activity compared to the DMSO control ([1]; listed as myricetin): no effect
- IL-1β Mean Fold-Change (Relative to LPS alone) ([2]; 10 mM (so in the source)): 1.10
- IL-6 Mean Fold-Change (Relative to LPS alone) ([2]; 10 mM (so in the source)): 0.97
- TNF-α Mean Fold-Change (Relative to LPS alone) ([2]; 10 mM (so in the source)): 0.90
- IL-1β Mean Fold-Change (Relative to LPS alone) ([2]; 100 mM (so in the source)): 1.09
- IL-6 Mean Fold-Change (Relative to LPS alone) ([2]; 100 mM (so in the source)): 0.88
- TNF-α Mean Fold-Change (Relative to LPS alone) ([2]; 100 mM (so in the source)): 0.93
- IL-1β Mean Fold-Change (Relative to LPS alone) ([2]; 200 mM (so in the source)): 0.98
- IL-6 Mean Fold-Change (Relative to LPS alone) ([2]; 200 mM (so in the source)): 0.75
- TNF-α Mean Fold-Change (Relative to LPS alone) ([2]; 200 mM (so in the source)): 0.86
- IL-2 concentration in supernatant ([2]; Donor 1, 10 (unit uncertain)): <LLOQ
- TNF-α concentration in supernatant ([2]; Donor 1, 10 (unit uncertain)): 1496.9 pg/mL
- IL-1β concentration in supernatant ([2]; Donor 1, 10 (unit uncertain)): 3079.47 pg/mL
- IFN-g concentration in supernatant ([2]; Donor 1, 10 (unit uncertain)): <LLOQ
- IL-6 concentration in supernatant ([2]; Donor 1, 10 (unit uncertain)): 884.11 pg/mL
- IL-2 concentration in supernatant ([2]; Donor 1, 100 (unit uncertain)): <LLOQ
- TNF-α concentration in supernatant ([2]; Donor 1, 100 (unit uncertain)): 1251.59 pg/mL
- IL-1β concentration in supernatant ([2]; Donor 1, 100 (unit uncertain)): 2858.12 pg/mL
- IFN-g concentration in supernatant ([2]; Donor 1, 100 (unit uncertain)): <LLOQ
- IL-6 concentration in supernatant ([2]; Donor 1, 100 (unit uncertain)): 767.01 pg/mL
- IL-2 concentration in supernatant ([2]; Donor 1, 200 (unit uncertain)): <LLOQ
- TNF-α concentration in supernatant ([2]; Donor 1, 200 (unit uncertain)): 1811.82 pg/mL
- IL-1β concentration in supernatant ([2]; Donor 1, 200 (unit uncertain)): 2923.92 pg/mL
- IFN-g concentration in supernatant ([2]; Donor 1, 200 (unit uncertain)): <LLOQ
- IL-6 concentration in supernatant ([2]; Donor 1, 200 (unit uncertain)): 781.22 pg/mL
- IL-2 concentration in supernatant ([2]; Donor 2, 10 (unit uncertain)): <LLOQ
- TNF-α concentration in supernatant ([2]; Donor 2, 10 (unit uncertain)): 1006.28 pg/mL
- IL-1β concentration in supernatant ([2]; Donor 2, 10 (unit uncertain)): 2517.48 pg/mL
- IFN-g concentration in supernatant ([2]; Donor 2, 10 (unit uncertain)): <LLOQ
- IL-6 concentration in supernatant ([2]; Donor 2, 10 (unit uncertain)): 685.49 pg/mL
- IL-2 concentration in supernatant ([2]; Donor 2, 100 (unit uncertain)): <LLOQ
- TNF-α concentration in supernatant ([2]; Donor 2, 100 (unit uncertain)): 1597.26 pg/mL
- IL-1β concentration in supernatant ([2]; Donor 2, 100 (unit uncertain)): 3046.49 pg/mL
- IFN-g concentration in supernatant ([2]; Donor 2, 100 (unit uncertain)): <LLOQ
- IL-6 concentration in supernatant ([2]; Donor 2, 100 (unit uncertain)): 833.84 pg/mL
- IL-2 concentration in supernatant ([2]; Donor 2, 200 (unit uncertain)): <LLOQ
- TNF-α concentration in supernatant ([2]; Donor 2, 200 (unit uncertain)): 1021.2 pg/mL
- IL-1β concentration in supernatant ([2]; Donor 2, 200 (unit uncertain)): 2501.45 pg/mL
- IFN-g concentration in supernatant ([2]; Donor 2, 200 (unit uncertain)): <LLOQ
- IL-6 concentration in supernatant ([2]; Donor 2, 200 (unit uncertain)): 649.98 pg/mL
- IL-2 concentration in supernatant ([2]; Donor 3, 10 (unit uncertain)): <LLOQ
- TNF-α concentration in supernatant ([2]; Donor 3, 10 (unit uncertain)): 4121.89 pg/mL
- IL-1β concentration in supernatant ([2]; Donor 3, 10 (unit uncertain)): 3880.95 pg/mL
- IFN-g concentration in supernatant ([2]; Donor 3, 10 (unit uncertain)): <LLOQ
- IL-6 concentration in supernatant ([2]; Donor 3, 10 (unit uncertain)): 685.49 pg/mL
- IL-2 concentration in supernatant ([2]; Donor 3, 100 (unit uncertain)): <LLOQ
- TNF-α concentration in supernatant ([2]; Donor 3, 100 (unit uncertain)): 3225.93 pg/mL
- IL-1β concentration in supernatant ([2]; Donor 3, 100 (unit uncertain)): 3293.89 pg/mL
- IFN-g concentration in supernatant ([2]; Donor 3, 100 (unit uncertain)): <LLOQ
- IL-6 concentration in supernatant ([2]; Donor 3, 100 (unit uncertain)): 833.84 pg/mL
- IL-2 concentration in supernatant ([2]; Donor 3, 200 (unit uncertain)): <LLOQ
- TNF-α concentration in supernatant ([2]; Donor 3, 200 (unit uncertain)): 2528.98 pg/mL
- IL-1β concentration in supernatant ([2]; Donor 3, 200 (unit uncertain)): 2756.81 pg/mL
- IFN-g concentration in supernatant ([2]; Donor 3, 200 (unit uncertain)): <LLOQ
- IL-6 concentration in supernatant ([2]; Donor 3, 200 (unit uncertain)): 649.98 pg/mL
- Effect on LPS stimulated cytokine secretion [2]: did not appear to have any effect
- Effect on LPS stimulated cytokine secretion ([2]; listed as myricetin): no effect

Source: patent US12569509B2, “Method and composition for preventing and treating viral infections” (priority 2017, dated 2026)
